# In patent US20050227337A1, “Method for producing ascorbic acid intermediates” (priority 1998, published 2005):
# What was measured:
# [1] = tested on: reductase and glucose dehydrogenase (GDH); assay: NADPH/NADP+ ratio in cofactor recycling reaction (absorbance at 340 nm); format: biochemical; details: final concentration 0.5 M NaCl; room temperature, pH 7
# Description: Therefore, if the two cofactors are mixed together, the amount of NADPH present can be determined by the absorbance at 340 nm. If the amount of NADP+ originally added is also known, the ratio of the two cofactors can then be easily determined. This method can be used to measure how the addition of various components to a reaction, such as a cofactor recycling reaction, affects the reaction equilibrium.
# A 1 ml reaction was set up in a cuvette at room temperature. The reaction consisted of buffer (50 mM bis-tris, pH 7), 5 mg glucose, 5 mg 2,5-DKG, 100 uM NADPH, 100 uM NADP+, reductase and glucose dehydrogenase (GDH). The enzymes were added last to initiate the reaction, and the cofactor levels were monitored at 340 nm. After equilibrium was reached (FIG. 7), an additional aliquot of GDH was added. Very quickly the equilibrium shifted to favor more NADPH being present. Addition of more GDH gave the same response.
# Another 1 ml incubation was set up as above. After it reached equilibrium, 29 mg of NaCl was added to it to give a final concentration of 0.5 M NaCl.
# [2] = tested on: 2-keto-D-gluconate dehydrogenase; details: reported by Shinagawa and Ameyama (1982); cited from earlier work
# [3] = tested on: 2-keto-D-gluconic acid dehydrogenase; assay: 2-keto-D-gluconic acid dehydrogenase activity in permeabilized cells with methanol (product formation, HPLC); format: biochemical, P. citrea; details: permeabilized cells with 15% MeOH and gluconic acid
# Description: (§1) 400 ml of P. citrea cells having a mutation in the naturally occurring membrane bound GDH was grown to 80 OD (600 nm) in 10 g/L gluconate, and mixed with 16 ml of a mixture of 10% toluene and 90% acetone for 3 minutes at 22 C. The permeabilized cells were then centrifuged for 10 minutes at 9000 rpm, and the resulting cell pellet was washed with 400 ml of 50 mM tris, pH 7. The washings were repeated twice more to ensure removal of residual organic solvent.
# (§2) Permeabilized cells were incubated with 15% MeOH and gluconic acid.
# GDH from T. acidophilum = biological target: T1, GDH from T. acidophilum (Thermoplasma acidophilum, UniProt P13203); assay: GDH activity in the presence of methanol; format: biochemical; details: incubated with 10% methanol; 50 mM Tris, pH 7
# T1 construct: purchased Sigma
# T1 sequence (P13203 1-361): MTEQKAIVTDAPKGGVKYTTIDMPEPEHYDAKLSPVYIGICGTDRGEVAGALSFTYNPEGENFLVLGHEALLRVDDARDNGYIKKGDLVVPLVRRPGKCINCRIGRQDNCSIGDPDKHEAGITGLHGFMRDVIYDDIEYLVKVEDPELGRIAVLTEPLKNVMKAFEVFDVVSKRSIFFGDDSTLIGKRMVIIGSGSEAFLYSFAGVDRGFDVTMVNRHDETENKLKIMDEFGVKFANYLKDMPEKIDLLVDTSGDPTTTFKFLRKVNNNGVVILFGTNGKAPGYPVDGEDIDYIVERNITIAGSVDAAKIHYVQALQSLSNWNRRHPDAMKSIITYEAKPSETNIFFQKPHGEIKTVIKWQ
# [4] = tested on: D-gluconic acid dehydrogenase; assay: D-gluconic acid dehydrogenase activity in permeabilized cells with methanol (product formation, HPLC); format: biochemical, P. citrea; details: permeabilized cells with 15% MeOH and gluconic acid
# Description: as §1, §2
structure (smiles),measurement,setting,value
"[Cl-].[Na+] [NaCl, sodium chloride]",shift of NADPH/NADP+ equilibrium,[1],dramatically shifted the equilibrium to favor the presence of NADPH
O=C(O)CC(O)(CC(=O)O)C(=O)O [citrate],effect on 2-keto-D-gluconate dehydrogenase,[2],inhibit
CO [methanol],activity of 2-keto-D-gluconic acid dehydrogenase,[3],not significantly affected
same,GDH activity,GDH from T. acidophilum,small decrease in activity
same,activity of D-gluconic acid dehydrogenase,[4],not significantly affected
O=C(O)CCC(=O)O [succinate],effect on 2-keto-D-gluconate dehydrogenase,[2],inhibit
